US11974983B2 (Duke University, priority 2018, dated 2024)
Numbering of substitutions follows the chain as printed. Like-named read-outs stand apart in the source and are kept apart here.

How the values were obtained:
[1] = target: T1, ERα Y537S mutant LBD (Homo sapiens, UniProt P03372, C381S/C417S/C530S/Y537S); experiment: X-ray crystal structure of ligand-bound ERα Y537S mutant LBD
T1 construct: 6x-His-TEV (N, cleaved yes); made in house; host or cells: E. coli BL21(DE3)
T1 sequence (P03372 311-547 C381S/C417S/C530S/Y537S limits assumed): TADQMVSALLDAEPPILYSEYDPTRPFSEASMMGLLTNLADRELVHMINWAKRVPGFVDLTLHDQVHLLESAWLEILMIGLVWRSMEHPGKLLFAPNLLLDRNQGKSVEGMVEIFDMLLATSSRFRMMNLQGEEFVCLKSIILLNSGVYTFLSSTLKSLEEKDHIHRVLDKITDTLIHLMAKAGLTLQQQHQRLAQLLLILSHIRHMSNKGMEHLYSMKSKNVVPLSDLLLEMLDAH
Protocol: (§1) 6x-His-TEV-Estrogen receptor alpha ligand binding domain containing C381S, C417S, C530S with L536S or Y537S mutations were expressed in E. coli BL21(DE3). The L536S mutant stabilizes the wild-type antagonist conformation and Y537S is an activating somatic mutation that has been identified in patients with acquired hormone resistance. Both proteins were purified using Ni-NTA resin, the 6x-His tag was cleaved using tev protease, removed using Ni-NTA resin, and a final purification was performed by passing the protein over a size exclusion column. The main peak was concentrated to 10 mg/mL and flash frozen.
(§2) Hanging drop vapor diffusion was used to crystallize the complexes. The L536S-Laso (lasofoxifene-bound ERα wild-type LBD) complex formed clear hexagonal crystals in 25% PEG 8,000, 200 mM MgCl2, HEPES pH 7.5 after two weeks at room temperature. The Y537S-Laso (lasofoxifene-bound ERα Y537S mutant LBD) complex formed rectangular crystals in 20% PEG 3.35K, 200 mM MgCl2, HEPES pH 6.5 after one week at room temperature.
(§3) Crystals were cryo-protected in 25% glycerol in mother liquor and flash frozen in liquid nitrogen. All x-ray crystallographic data sets were collected at the Advanced Photon Source. The L536S-Laso complex diffracted to 1.8 Å and the Y537S-Laso complex diffracted to 2.1 Å by cc^1/2 over 50%. Phaser was used for molecular replacement with 5UFX as the model. […]

[2] = test system: MCF7 D538G; experiment: Mammary intraductal (MIND) xenograft model, MCF7 D538G; format: in vivo, NSG mice
Protocol: (§4) MCF7 cells were engineered with CRISPR/Cas9 to express ERα with Y537S and D538G mutations. To mimic the natural environment of infiltrating ductal ERα^+ breast cancers, NSG™ mice were injected, via the nipple in the inguinal mammary glands, with three MCF7 cell variants: wild type MCF7 cells (MCF7 WT), MCF7 cells expressing Y537S mutant ERα (MCF7 Y537S), and MCF7 cells expressing D538G mutant ERα (MCF7 D538G), respectively. Prior to injection, the MCF7 cells were labeled with a luciferase reporter to monitor tumor growth in vivo using a Xenogen IVIS imager. […] FIG. 4 summarizes the experimental design.

[3] = cited from earlier work
[4] = target: T2, ERα wild-type LBD (Homo sapiens, UniProt P03372, C381S/C417S/C530S/L536S); experiment: X-ray crystal structure of ligand-bound ERα wild-type LBD (L536S)
T2 construct: 6x-His-TEV (N, cleaved yes); made in house; host or cells: E. coli BL21(DE3)
T2 sequence (P03372 311-547 C381S/C417S/C530S/L536S limits assumed): T1 sequence (P03372 311-547 C381S/C417S/C530S/Y537S limits assumed) with L226S, S227Y
Protocol: as §1, §2, §3

[5] = test system: MCF7 cells stably expressing DOX-inducible ER Y537S; experiment: Dose response cell counting in MCF7 cells with DOX-inducible HA-tagged ER Y537S; format: cell-based; details: for IC50: Homo sapiens, MCF7, 120 h, allele Y537S, cell count day 5, full medium
Protocol: (§5) MCF7 estrogen receptor alpha positive (ER^+) breast cancer cells were engineered to stably express doxycycline (DOX)-inducible hemagglutinin (HA)-tagged full length ER with ligand binding domain mutations Y537S and D538G. The introduction and expression of the mutants were confirmed by Sanger sequencing, RNA-sequencing, and western blot.
(§6) The dose response studies were performed in full medium conditions. Cells were treated with DOX for the induction of HA-tagged mutated ER or with vehicle as control, and plated in triplicate. Subsequently, on day 5, cell counting was performed using the Celigo instrument with Hoechst dye staining to detect nucleated live cells and propidium iodide to quantify dead cells.
(§7) IC50 values were calculated using PRISM.

[6] = Cmax in blood at doses used in prior clinical trials; format: in vivo; details: dose 1 mg; read-out: Converted (M) Cmax
Text: See Maximov et al., Current Clinical Pharmacology 8(2): 135-155 (2013). […] See Assessment Report for Fablyn, 2009 (EMA). […] See Gardner et al., J Clin Pharmacol 46(1): 52-58 (2006).

[7] = in blood, cited from earlier work
[8] = test system: MCF7 cells stably expressing DOX-inducible ER D538G; experiment: Dose response cell counting in MCF7 cells with DOX-inducible HA-tagged ER D538G; format: cell-based; details: for IC50: Homo sapiens, MCF7, 120 h, allele D538G, cell count day 5, full medium
Protocol: as §5, §6, §7

[9] = test system: MCF7 Y537S; experiment: Mammary intraductal (MIND) xenograft model, MCF7 Y537S; format: in vivo, NSG mice
Protocol: as §4

[10] = DOX-induced mutant ER, read-out: IC50 DOX (ESR mutation)
[11] = no DOX, read-out: IC50 No DOX (wt only)
[12] = MCF7 Y537S, 5 mg/kg and 10 mg/kg, after 70 days

## Oc1ccc2c(c1)CC[C@H](c1ccccc1)[C@@H]2c1ccc(OCCN2CCCC2)cc1 [Lasofoxifene, lasofoxifene]
[1]
  loop between helix 11 and helix 12 in the crystal structure: absent
[2]; MCF7 D538G mice, 10 mg/kg five times per week subcutaneous
  tumor growth monitored by total flux: most significantly inhibited
[2]; MCF7 D538G, 5 mg/kg and 10 mg/kg, after 70 days
  tumor weight, compared to fulvestrant: significantly more effective
[2]; MCF7 D538G, 10 mg/kg, after 70 days of treatment
  tumor growth measured by tumor weight, compared to vehicle control: significantly inhibited
[2]; MCF7 D538G, all tested doses (1, 5, 10 mg/kg), after 70 days
  liver metastasis: effective in reducing liver metastasis at all tested doses
[3]; PEARL trial, post-menopausal women with osteoporosis
  risk of breast cancer: reduced the risk of breast cancer
[3]; double-blind, placebo-controlled, randomized PEARL trial
  risk of osteoporosis: reduce the risk of osteoporosis
[4]
  loop between helix 11 and helix 12 in the crystal structure: does not disrupt the loop between helix 11 and helix 12
[5]; [10]
  IC50: 4.1 nM
[5]; [11]
  IC50: 0.36 nM
[5]; Y537S stable transfectants, 10^−12 M to 10^−6 M
  anti-estrogenic activity, cell killing with increasing dose titration: kill the stably transfected cells
[6]
  Cmax: 1.55e-08 M
[7]; dose 0.5 mg
  Reported Cmax: 3.6 ng/mL
[7]; dose 1 mg
  Reported Cmax: 6.43 ng/mL
[8]; D538G stable transfectants, 10^−12 M to 10^−6 M
  anti-estrogenic activity, cell killing with increasing dose titration: kill the stably transfected cells
[8]; [10]
  IC50: 1 nM
[8]; [11]
  IC50: 0.1 nM
[9]; MCF7 Y537S mice, 10 mg/kg five times per week subcutaneous
  tumor growth monitored by total flux: most significantly inhibited
[9]; [12]
  liver metastasis, compared to fulvestrant: significantly more effective in reducing liver metastasis
  tumor weight, compared to fulvestrant: significantly more effective
[9]; MCF7 Y537S, 10 mg/kg, after 70 days of treatment
  tumor growth measured by tumor weight, compared to vehicle control: significantly inhibited
[9]; MCF7 Y537S, all tested doses (1, 5, 10 mg/kg), after 70 days
  tumor growth measured by tumor weight: significantly inhibited the growth of tumors at all tested doses
[9]; MCF7 Y537S, lasofoxifene 5 mg/kg and 10 mg/kg, after 70 days
  lung metastasis: significantly reduce lung metastasis
